From patent publication EP2072621A1, “Solvent tolerant microorganisms” (DSM IP Assets B.V., priority 2007, dated 2009)
Where two headings read alike, the source gives them in different places.

How the values were obtained:
[1] = tested on: L. fructivorans ATCC 8288; conditions: 30 degrees C; for Relative growth rate: reference at 0 g/L = 1.00
Experimental: (§1) MRS medium oxoid (CM0359, Merck KgaA, Germany) was prepared according to manufacturer's instructions and filled out in 50 ml Schott flasks and sterilized at 121 degrees C during 15 minutes. 1 vial of thawed frozen culture was inoculated to 50 ml of this medium and the cultures were subsequently incubated overnight at 30 degrees C standing still or during 2 nights if no clear growth (whitening) had occurred yet. 20 microliter of this culture was inoculated to 180 microliter of microtiter plate (MTP) medium. The pH of this medium was approximately 6.0.
(§2) After inoculation, every 20 minutes the optical density at 620 nm was measured in the wells of the microtiter plate using a Multiscan Ascent photometer (Thermo Fisher Scientific, Inc.), while the temperature was controlled at 30 degrees C. Total time of measurement was maximally 24 hours. Before measurements were taken, the microtiter plates were shaken for 30 seconds to homogenize any settled biomass.
(§3) The growth rate was calculated using the exponential phase of the growth curve, based on the optical density measurement. The relative growth rate was calculated using the reference at 0 g/L as 1.00. […] Table 3 Relative growth rate
(§4) IC50(%) values were determined for the Lactobacilli at 30 degrees C by using a polynomial second order fit through the relative growth rate data and are presented in Table 4. […]

[2] = tested on: L. casei from commercial rennet; conditions: 30 degrees C; for Relative growth rate: reference at 0 g/L = 1.00
Experimental: as §1, §2, §3, §4

L. plantarum ATCC 8014 = conditions: 30 degrees C; for Relative growth rate: reference at 0 g/L = 1.00
Experimental: as §1, §2, §3, §4

L. casei ADRIA 85 L121 = conditions: 30 degrees C; for Relative growth rate: reference at 0 g/L = 1.00
Experimental: as §1, §2, §3, §4

Lactobacilli = conditions: butanol concentration of 2.5 w/v%
Experimental: as §1, §2, §3, §4

[3] = polynomial second order fit through the relative growth rate data

butanol
IC50% [1, 3]: 2.1 w/v %
Relative growth rate ([1]; Butanol concentration 0.5 w/v%): 0.94
Relative growth rate ([1]; Butanol concentration 1 w/v%): 0.89
Relative growth rate ([1]; Butanol concentration 1.5 w/v%): 0.78
Relative growth rate ([1]; Butanol concentration 2.5 w/v%): 0.28
IC50% [2, 3]: 1.9 w/v %
Relative growth rate ([2]; Butanol concentration 0.5 w/v%): 0.88
Relative growth rate ([2]; Butanol concentration 1 w/v%): 0.79
Relative growth rate ([2]; Butanol concentration 1.5 w/v%): 0.68
Relative growth rate ([2]; Butanol concentration 2.5 w/v%): 0.24
IC50% (L. plantarum ATCC 8014; [3]): 2.2 w/v %
Relative growth rate (L. plantarum ATCC 8014; Butanol concentration 0.5 w/v%): 0.97
Relative growth rate (L. plantarum ATCC 8014; Butanol concentration 1 w/v%): 0.90
Relative growth rate (L. plantarum ATCC 8014; Butanol concentration 1.5 w/v%): 0.77
Relative growth rate (L. plantarum ATCC 8014; Butanol concentration 2.5 w/v%): 0.37
IC50% (L. casei ADRIA 85 L121; [3]): 2.0 w/v %
Relative growth rate (L. casei ADRIA 85 L121; Butanol concentration 0.5 w/v%): 0.96
Relative growth rate (L. casei ADRIA 85 L121; Butanol concentration 1 w/v%): 0.89
Relative growth rate (L. casei ADRIA 85 L121; Butanol concentration 1.5 w/v%): 0.73
Relative growth rate (L. casei ADRIA 85 L121; Butanol concentration 2.5 w/v%): 0.21
growth in presence of butanol (Lactobacilli): can still grow
